# From patent publication US20220323406A1, “METHODS AND COMPOSITIONS FOR DIFFERENTIATING STEM CELLS” (Massachusetts Institute of Technology, priority 2019, published 2022)
# Assays:
# [1] = tested on: ENR+CD organoids (ISC to Paneth cell differentiation); assay: Primary screen: basal (non-stimulated) lysozyme secretion LYZ.NS, 2.5-D 384-well ENR+CD organoid differentiation; assay type: cell-based, mouse; conditions: primary screen; for Z.LYZ.NS: standard z score
# Description: (§1) High-throughput screening.
# [2] = tested on: ENR+CD organoids (ISC to Paneth cell differentiation); assay: Primary screen: CCh-stimulated lysozyme secretion LYZ.S, 2.5-D 384-well ENR+CD organoid differentiation; assay type: cell-based, mouse; conditions: primary screen
# Description: as §1
# ENR+CD organoids = assay: Primary screen: ATP (CellTiter-Glo 3D, CTG) cell number/viability, 2.5-D 384-well ENR+CD organoids; conditions: primary screen;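 also: compounds given at plating and again on day 3 over a 6-day differentiation from ENR+CV stem-cell-enriched precursors, ATP measured on day 6, plate median as control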
# [3] = 1st dose row of the treatment (0.08 uM by row order; dose not reprinted)
# [4] = 2nd dose row of the treatment (0.40 uM by row order; dose not reprinted)
# [5] = 3rd dose row of the treatment (2.00 uM by row order; dose not reprinted)
# [6] = 4th dose row of the treatment (10.00 uM by row order; dose not reprinted)
# [7] = dose 0.08 uM, FC relative to plate median
# [8] = dose 0.40 uM, FC relative to plate median
# [9] = dose 2.00 uM, FC relative to plate median
# [10] = dose 10.00 uM, FC relative to plate median
SMILES,Dose.FC.LYZ.NS ([1]; dose 0.08 uM) [log2 fold change],Z.LYZ.NS (standard z score) ([1]; dose 0.08 uM),Dose.FC.LYZ.NS ([1]; dose 0.40 uM) [log2 fold change],Z.LYZ.NS (standard z score) ([1]; dose 0.40 uM),Dose.FC.LYZ.NS ([1]; dose 2.00 uM) [log2 fold change],Z.LYZ.NS (standard z score) ([1]; dose 2.00 uM),Dose.FC.LYZ.NS ([1]; dose 10.00 uM) [log2 fold change],Z.LYZ.NS (standard z score) ([1]; dose 10.00 uM),Dose.FC.LYZ.S ([2]; dose 0.08 uM) [log2 fold change],Dose.FC.LYZ.S ([2]; dose 0.40 uM) [log2 fold change],Dose.FC.LYZ.S ([2]; dose 2.00 uM) [log2 fold change],Dose.FC.LYZ.S ([2]; dose 10.00 uM) [log2 fold change],Dose.FC.CTG (ENR+CD organoids; dose 0.08 uM) [log2 fold change],Z.CTG (standard z score) (ENR+CD organoids; dose 0.08 uM),Dose.FC.CTG (ENR+CD organoids; dose 0.40 uM) [log2 fold change],Z.CTG (standard z score) (ENR+CD organoids; dose 0.40 uM),Dose.FC.CTG (ENR+CD organoids; dose 2.00 uM) [log2 fold change],Z.CTG (standard z score) (ENR+CD organoids; dose 2.00 uM),Dose.FC.CTG (ENR+CD organoids; dose 10.00 uM) [log2 fold change],Z.CTG (standard z score) (ENR+CD organoids; dose 10.00 uM),other results
C=C1C(=O)O[C@H]2[C@H]1CC/C(C)=C/CC[C@@]1(C)O[C@@H]21 [(−)-Parthenolide],0.058,0.506,0.067,0.583,0.089,0.776,0.133,1.159,0.124,0.165,0.068,0.082,0.135,0.322,0.228,0.544,0.157,0.376,0.157,0.374,"SSMD.LYZ.NS_Rep (strictly standardized mean difference) [1, 3]: 0.601; SSMD.LYZ.NS_Rep (strictly standardized mean difference) [1, 4]: 0.480; SSMD.LYZ.NS_Rep (strictly standardized mean difference) [1, 5]: 0.920; SSMD.LYZ.NS_Rep (strictly standardized mean difference) [1, 6]: 0.998; SSMD.LYZ.S_Rep (strictly standardized mean difference) [2, 3]: 0.679; Z.LYZ.S (standard z score) [2, 3]: 0.799; SSMD.LYZ.S_Rep (strictly standardized mean difference) [2, 4]: 0.763; Z.LYZ.S (standard z score) [2, 4]: 1.067; SSMD.LYZ.S_Rep (strictly standardized mean difference) [2, 5]: 0.506; Z.LYZ.S (standard z score) [2, 5]: 0.441; SSMD.LYZ.S_Rep (strictly standardized mean difference) [2, 6]: 0.345; Z.LYZ.S (standard z score) [2, 6]: 0.530; SSMD.CTG.Rep (strictly standardized mean difference) (ENR+CD organoids; [3]): 0.498; SSMD.CTG.Rep (strictly standardized mean difference) (ENR+CD organoids; [4]): 0.736; SSMD.CTG.Rep (strictly standardized mean difference) (ENR+CD organoids; [5]): 0.482; SSMD.CTG.Rep (strictly standardized mean difference) (ENR+CD organoids; [6]): 0.257"
CNCc1ccc(-c2cc(-c3nc(-c4ccc(S(=O)(=O)C(C)C)cc4)cnc3N)on2)cc1 [VE-822],0.058,0.505,−0.040,−0.351,−0.220,−1.913,−0.210,−1.825,0.104,−0.064,−0.302,−0.321,−0.147,,−0.287,,−0.717,,−1.763,,
Cc1ccccc1C(=O)Nc1ccc(C(=O)N2CCCC(O)c3cc(Cl)ccc32)c(C)c1 (stereo not drawn) [Tolvaptan],0.049,0.429,−0.041,−0.355,−0.023,−0.204,−0.093,−0.807,0.086,0.031,−0.048,−0.150,0.095,,−0.008,,−0.094,,−0.104,,
COc1cc(N2CCN(C)CC2)ccc1Nc1nccc(-c2cn(C)c3cnccc23)n1 [AZ191],0.128,1.111,0.082,0.717,0.058,0.507,−0.148,−1.289,0.143,0.199,0.097,−0.200,0.292,0.697,0.337,0.804,0.150,0.358,−0.533,−1.272,
CC(=O)Nc1cccc2c1c(Sc1ccc(Cl)cc1)c(C)n2CC(=O)O [AZD1981],0.009,0.081,0.001,0.008,0.001,0.011,0.024,0.205,0.023,0.191,0.014,0.070,0.400,0.955,0.285,0.681,0.099,0.236,0.238,0.570,
COc1cc2c(cc1OC)CN(CCc1ccc(NC(=O)c3cc(OC)c(OC)cc3NC(=O)c3cnc4ccccc4c3)cc1)CC2 [Tariquidar],,,,,,,,,,,,,,,,,,,,,"Dose.FC.LYZ.NS [1, 7]: 0.053 log2 fold change; Z.LYZ.NS ([1]; dose 0.08 uM): 0.465; Dose.FC.LYZ.NS [1, 8]: 0.037 log2 fold change; Z.LYZ.NS ([1]; dose 0.40 uM): 0.326; Dose.FC.LYZ.NS [1, 9]: 0.031 log2 fold change; Z.LYZ.NS ([1]; dose 2.00 uM): 0.270; Dose.FC.LYZ.NS [1, 10]: 0.034 log2 fold change; Z.LYZ.NS ([1]; dose 10.00 uM): 0.292; Dose.FC.LYZ.S [2, 7]: 0.040 log2 fold change; Dose.FC.LYZ.S [2, 8]: 0.073 log2 fold change; Dose.FC.LYZ.S [2, 9]: 0.059 log2 fold change; Dose.FC.LYZ.S [2, 10]: 0.019 log2 fold change; Dose.FC.CTG (ENR+CD organoids; [7]): −0.117 log2 fold change; Dose.FC.CTG (ENR+CD organoids; [8]): 0.054 log2 fold change; Dose.FC.CTG (ENR+CD organoids; [9]): 0.376 log2 fold change; Dose.FC.CTG (ENR+CD organoids; [10]): 0.227 log2 fold change"
CC(C)(C)c1cc(C(C)(C)C)c(NC(=O)c2c[nH]c3ccccc3c2=O)cc1O [Ivacaftor (VX-770)],,0.864,,1.109,,0.717,,−1.240,,,,,,0.558,,0.347,,−0.354,,−1.123,Dose.FC.LYZ.NS (log2 fold change) ([1]; dose 0.08 uM): 0.099; Dose.FC.LYZ.NS (log2 fold change) ([1]; dose 0.40 uM): 0.127; Dose.FC.LYZ.NS (log2 fold change) ([1]; dose 2.00 uM): 0.082; Dose.FC.LYZ.NS (log2 fold change) ([1]; dose 10.00 uM): −0.142; Dose.FC.LYZ.S (log2 fold change) ([2]; dose 0.08 uM): 0.132; Dose.FC.LYZ.S (log2 fold change) ([2]; dose 0.40 uM): 0.189; Dose.FC.LYZ.S (log2 fold change) ([2]; dose 2.00 uM): 0.019; Dose.FC.LYZ.S (log2 fold change) ([2]; dose 10.00 uM): −0.253; Dose.FC.CTG (log2 fold change) (ENR+CD organoids; dose 0.08 uM): 0.234; Dose.FC.CTG (log2 fold change) (ENR+CD organoids; dose 0.40 uM): 0.145; Dose.FC.CTG (log2 fold change) (ENR+CD organoids; dose 2.00 uM): −0.148; Dose.FC.CTG (log2 fold change) (ENR+CD organoids; dose 10.00 uM): −0.470
